Bridge positions count the residues as written; N and C are the ends. Peptide text beside a SMILES is read from it.
These compounds were tested against T1, IL-23 binding to IL23R_huFC (human IL-23R) (Homo sapiens, UniProt P29460+Q9NPF7) (assay: IL23-IL23R Competitive Binding ELISA). Settings: not given.
T1 sequence (Q9NPF7 20-189): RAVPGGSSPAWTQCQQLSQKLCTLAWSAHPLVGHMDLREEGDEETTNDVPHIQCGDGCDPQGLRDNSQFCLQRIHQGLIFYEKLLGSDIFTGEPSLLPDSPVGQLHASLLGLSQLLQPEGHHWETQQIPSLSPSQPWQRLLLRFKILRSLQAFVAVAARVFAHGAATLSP
T1 sequence (P29460 23-328): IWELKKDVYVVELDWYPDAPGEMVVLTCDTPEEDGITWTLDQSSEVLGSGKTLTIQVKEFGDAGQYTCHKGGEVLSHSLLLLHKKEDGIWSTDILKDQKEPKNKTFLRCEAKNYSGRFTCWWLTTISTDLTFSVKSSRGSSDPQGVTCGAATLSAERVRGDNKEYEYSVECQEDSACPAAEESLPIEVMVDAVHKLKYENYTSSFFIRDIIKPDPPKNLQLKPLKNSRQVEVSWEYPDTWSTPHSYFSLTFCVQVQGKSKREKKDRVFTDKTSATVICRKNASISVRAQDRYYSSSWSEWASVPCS
Method: Immulon® 4HBX plate was coated with 200 ng/well of IL23R_huFC and incubated overnight at 4° C. […] Serial dilutions of test peptides and IL-23 at a final concentration of 0.9 nM diluted in PBS were added to each well and incubated for 2 hours at room temperature. After the wells were washed, bound IL-23 was detected by incubation with 50 ng/well of goat anti-p40 polyclonal antibodies (R&D Systems #AF309) diluted in PBS for 1 hour at room temperature. The wells were again washed four times with PBST. […] The plate was finally washed as above. Signals were visualized with TMB One Component HRP Membrane Substrate, quenched with 2 M sulfuric acid and read spectrophotometrically at 450 nm.

SMILES | IC50
CC[C@H](C)[C@@H]1NC(=O)[C@H](CCCCN)NC(=O)[C@H](C)NC(=O)[C@H](CC(N)=O)NC(=O)[C@H](CCCNC(=N)N)NC(=O)[C@H](CCC(N)=O)NC(=O)[C@H](CCC(=O)O)NC(=O)[C@H](CCC(=O)O)NC(=O)[C@H](CC(N)=O)NC(=O)[C@H](CC(C)C)NC(=O)[C@H](CC(N)=O)NC(=O)[C@@H]2CCCN2C(=O)[C@H](CC(=O)O)NC(=O)[C@H](C)NC(=O)[C@H](C)NC(=O)[C@H](C)NC(=O)[C@H](CO)NC(=O)[C@H](Cc2ccc(O)cc2)NC(=O)[C@H](Cc2ccccc2)NC(=O)[C@H](C)NC(=O)[C@H](CC(C)C)NC(=O)[C@H](CCC(N)=O)NC(=O)[C@@H](NC(=O)[C@H](Cc2ccccc2)NC(=O)[C@H](CCSC)NC(=O)[C@H](CC(N)=O)NC(=O)[C@H](Cc2ccccc2)NC(C)=O)CSSC[C@@H](C(N)=O)NC(=O)[C@H](CC(C)C)NC(=O)[C@H](CC(=O)O)NC(=O)[C@H](CCCNC(=N)N)NC(=O)[C@H](Cc2ccccc2)NC(=O)[C@H](CO)NC(=O)[C@H](CCCCN)NC1=O [Peptide 9] (Ac-FNMFCQLAFYSAAADPNLNEEQRNAKIKSFRDLC-NH2; disulfide 5-34) | 10 to 100 µM

Same assay, conditions: inhibition of IL-23/IL-23R binding; IL-23 0.9 nM; class symbols; read-out: IC50 IL23R_huFC

SMILES | IC50
CC[C@H](C)[C@@H]1NC(=O)[C@H](CCCCN)NC(=O)[C@H](C)NC(=O)[C@H](Cc2c[nH]c3ccccc23)NC(=O)[C@H](CCCNC(=N)N)NC(=O)[C@H](CCC(N)=O)NC(=O)[C@H](CCC(=O)O)NC(=O)[C@H](CCC(N)=O)NC(=O)[C@H](CC(N)=O)NC(=O)[C@H](CC(C)C)NC(=O)[C@H](CC(N)=O)NC(=O)[C@@H]2CCCN2C(=O)[C@H](CC(=O)O)NC(=O)[C@H](C(C)C)NC(=O)CNC(=O)[C@H](C)NC(=O)[C@H](CCC(=O)O)NC(=O)[C@H](C)NC(=O)[C@H](CCSC)NC(=O)[C@H](CCCNC(=N)N)NC(=O)[C@H](CCCNC(=N)N)NC(=O)[C@H](CC(C)C)NC(=O)[C@@H](NC(=O)[C@H](CCC(N)=O)NC(=O)[C@H](CCSC)NC(=O)[C@H](CC(N)=O)NC(=O)[C@H](Cc2ccccc2)NC(C)=O)CSSC[C@@H](C(N)=O)NC(=O)[C@H](CC(=O)O)NC(=O)[C@H](CC(=O)O)NC(=O)[C@H](CCSC)NC(=O)[C@H]([C@@H](C)CC)NC(=O)[C@H](CO)NC(=O)[C@H](CCCCN)NC1=O [Peptide 13] (Ac-FNMQCLRRMAEAGVDPNLNQEQRWAKIKSIMDDC-NH2; disulfide 5-34) | < 1 µM
CC[C@H](C)[C@@H]1NC(=O)[C@H](CCCCN)NC(=O)[C@H](C)NC(=O)[C@H](Cc2c[nH]c3ccccc23)NC(=O)[C@H](CCCNC(=N)N)NC(=O)[C@H](CCC(N)=O)NC(=O)[C@H](CCC(=O)O)NC(=O)[C@H](CCC(N)=O)NC(=O)[C@H](C)NC(=O)[C@H](CC(C)C)NC(=O)[C@H](CC(N)=O)NC(=O)[C@@H]2CCCN2C(=O)[C@H](CC(=O)O)NC(=O)[C@H](C(C)C)NC(=O)CNC(=O)[C@H](C)NC(=O)[C@H](CCC(=O)O)NC(=O)[C@H](CO)NC(=O)[C@H](CCSC)NC(=O)[C@H](CCCNC(=N)N)NC(=O)[C@H](CCCNC(=N)N)NC(=O)[C@H](CC(C)C)NC(=O)[C@@H](NC(=O)[C@H](CCC(N)=O)NC(=O)[C@H](CCSC)NC(=O)[C@H](CC(N)=O)NC(=O)[C@H](Cc2ccccc2)NC(C)=O)CSSC[C@@H](C(N)=O)NC(=O)[C@H](CC(=O)O)NC(=O)[C@H](CC(=O)O)NC(=O)[C@H](CCSC)NC(=O)[C@H]([C@@H](C)CC)NC(=O)[C@H](CO)NC(=O)[C@H](CCCCN)NC1=O [Peptide 17] (Ac-FNMQCLRRMSEAGVDPNLAQEQRWAKIKSIMDDC-NH2; disulfide 5-34) | 1 to 10 µM
CC[C@H](C)[C@@H]1NC(=O)[C@H](CCCCN)NC(=O)[C@H](C)NC(=O)[C@H](Cc2c[nH]c3ccccc23)NC(=O)[C@H](CCCNC(=N)N)NC(=O)[C@H](CCC(N)=O)NC(=O)[C@H](CCC(=O)O)NC(=O)[C@H](CCC(N)=O)NC(=O)[C@H](CC(N)=O)NC(=O)[C@H](CC(C)C)NC(=O)[C@H](CC(N)=O)NC(=O)[C@@H]2CCCN2C(=O)[C@H](CC(=O)O)NC(=O)[C@H](C(C)C)NC(=O)CNC(=O)[C@H](C)NC(=O)[C@H](CCC(=O)O)NC(=O)[C@H](CO)NC(=O)[C@H](C)NC(=O)[C@H](CCCNC(=N)N)NC(=O)[C@H](CCCNC(=N)N)NC(=O)[C@H](CC(C)C)NC(=O)[C@@H](NC(=O)[C@H](CCC(N)=O)NC(=O)[C@H](CCSC)NC(=O)[C@H](CC(N)=O)NC(=O)[C@H](Cc2ccccc2)NC(C)=O)CSSC[C@@H](C(N)=O)NC(=O)[C@H](CC(=O)O)NC(=O)[C@H](CC(=O)O)NC(=O)[C@H](CCSC)NC(=O)[C@H]([C@@H](C)CC)NC(=O)[C@H](CO)NC(=O)[C@H](CCCCN)NC1=O [Peptide 12] (Ac-FNMQCLRRASEAGVDPNLNQEQRWAKIKSIMDDC-NH2; disulfide 5-34) | 1 to 10 µM
CC[C@H](C)[C@@H]1NC(=O)[C@H](CCCCN)NC(=O)[C@H](C)NC(=O)[C@H](Cc2c[nH]c3ccccc23)NC(=O)[C@H](CCCNC(=N)N)NC(=O)[C@H](CCC(N)=O)NC(=O)[C@H](CCC(=O)O)NC(=O)[C@H](CCC(N)=O)NC(=O)[C@H](CC(N)=O)NC(=O)[C@H](CC(C)C)NC(=O)[C@H](CC(N)=O)NC(=O)[C@@H]2CCCN2C(=O)[C@H](CC(=O)O)NC(=O)[C@H](C(C)C)NC(=O)CNC(=O)[C@H](C)NC(=O)[C@H](CCC(=O)O)NC(=O)[C@H](CO)NC(=O)[C@H](CCSC)NC(=O)[C@H](CCCNC(=N)N)NC(=O)[C@H](CCCNC(=N)N)NC(=O)[C@H](CC(C)C)NC(=O)[C@@H](NC(=O)[C@H](CCC(N)=O)NC(=O)[C@H](CCSC)NC(=O)[C@H](CC(N)=O)NC(=O)[C@H](Cc2ccccc2)NC(C)=O)CSSC[C@@H](C(N)=O)NC(=O)[C@H](CC(=O)O)NC(=O)[C@H](CC(=O)O)NC(=O)[C@H](CCSC)NC(=O)[C@H]([C@@H](C)CC)NC(=O)[C@H](CO)NC(=O)[C@H](C)NC1=O [Peptide 22] (Ac-FNMQCLRRMSEAGVDPNLNQEQRWAKIASIMDDC-NH2; disulfide 5-34) | 1 to 10 µM
CC[C@H](C)[C@@H]1NC(=O)[C@H](CCCCN)NC(=O)[C@H](C)NC(=O)[C@H](Cc2c[nH]c3ccccc23)NC(=O)[C@H](C)NC(=O)[C@H](CCC(N)=O)NC(=O)[C@H](CCC(=O)O)NC(=O)[C@H](CCC(N)=O)NC(=O)[C@H](CC(N)=O)NC(=O)[C@H](CC(C)C)NC(=O)[C@H](CC(N)=O)NC(=O)[C@@H]2CCCN2C(=O)[C@H](CC(=O)O)NC(=O)[C@H](C(C)C)NC(=O)CNC(=O)[C@H](C)NC(=O)[C@H](CCC(=O)O)NC(=O)[C@H](CO)NC(=O)[C@H](CCSC)NC(=O)[C@H](CCCNC(=N)N)NC(=O)[C@H](CCCNC(=N)N)NC(=O)[C@H](CC(C)C)NC(=O)[C@@H](NC(=O)[C@H](CCC(N)=O)NC(=O)[C@H](CCSC)NC(=O)[C@H](CC(N)=O)NC(=O)[C@H](Cc2ccccc2)NC(C)=O)CSSC[C@@H](C(N)=O)NC(=O)[C@H](CC(=O)O)NC(=O)[C@H](CC(=O)O)NC(=O)[C@H](CCSC)NC(=O)[C@H]([C@@H](C)CC)NC(=O)[C@H](CO)NC(=O)[C@H](CCCCN)NC1=O [Peptide 19] (Ac-FNMQCLRRMSEAGVDPNLNQEQAWAKIKSIMDDC-NH2; disulfide 5-34) | 1 to 10 µM
CC[C@H](C)[C@@H]1NC(=O)CNC(=O)[C@H](C)NC(=O)[C@H](CCC(=O)O)NC(=O)[C@H](C(C)C)NC(=O)[C@H](CCSC)NC(=O)[C@H](CCCNC(=N)N)NC(=O)[C@H](CCCNC(=N)N)NC(=O)[C@H](CC(C)C)NC(=O)[C@@H](NC(=O)[C@H](CCC(N)=O)NC(=O)[C@H](CCSC)NC(=O)[C@H](CC(N)=O)NC(=O)[C@H](Cc2ccccc2)NC(C)=O)CSSC[C@@H](C(N)=O)NC(=O)[C@H](CC(=O)O)NC(=O)[C@H](CC(=O)O)NC(=O)[C@H](Cc2ccccc2)NC(=O)[C@H]([C@@H](C)CC)NC(=O)[C@H](CO)NC(=O)[C@H](CCCNC(=N)N)NC(=O)[C@H]([C@@H](C)CC)NC(=O)[C@H](CCCCN)NC(=O)[C@H](C)NC(=O)[C@H](Cc2c[nH]c3ccccc23)NC(=O)[C@H](CCCNC(=N)N)NC(=O)[C@H](CCC(N)=O)NC(=O)CNC(=O)[C@H](CO)NC(=O)[C@H](CC(N)=O)NC(=O)[C@H](CC(C)C)NC(=O)[C@H](CC(N)=O)NC(=O)[C@@H]2CCCN2C(=O)[C@H](CC(=O)O)NC1=O [Peptide 8] (Ac-FNMQCLRRMVEAGIDPNLNSGQRWAKIRSIFDDC-NH2; disulfide 5-34) | 10 to 100 µM
CC[C@H](C)[C@@H]1NC(=O)[C@H](CCCCN)NC(=O)[C@H](C)NC(=O)[C@H](Cc2c[nH]c3ccccc23)NC(=O)[C@H](CCCNC(=N)N)NC(=O)[C@H](CCC(N)=O)NC(=O)[C@H](CCC(=O)O)NC(=O)[C@H](CCC(N)=O)NC(=O)[C@H](CC(N)=O)NC(=O)[C@H](CC(C)C)NC(=O)[C@H](CC(N)=O)NC(=O)[C@H](C)NC(=O)[C@H](CC(=O)O)NC(=O)[C@H](C(C)C)NC(=O)CNC(=O)[C@H](C)NC(=O)[C@H](CCC(=O)O)NC(=O)[C@H](CO)NC(=O)[C@H](CCSC)NC(=O)[C@H](CCCNC(=N)N)NC(=O)[C@H](CCCNC(=N)N)NC(=O)[C@H](CC(C)C)NC(=O)[C@@H](NC(=O)[C@H](CCC(N)=O)NC(=O)[C@H](CCSC)NC(=O)[C@H](CC(N)=O)NC(=O)[C@H](Cc2ccccc2)NC(C)=O)CSSC[C@@H](C(N)=O)NC(=O)[C@H](CC(=O)O)NC(=O)[C@H](CC(=O)O)NC(=O)[C@H](CCSC)NC(=O)[C@H]([C@@H](C)CC)NC(=O)[C@H](CO)NC(=O)[C@H](CCCCN)NC1=O [Peptide 16] (Ac-FNMQCLRRMSEAGVDANLNQEQRWAKIKSIMDDC-NH2; disulfide 5-34) | 1 to 10 µM

Reference: patent publication US12655185B2, “Peptide inhibitors of interleukin-23 and their use to treat inflammatory diseases” (Protagonist Therapeutics, Inc., priority 2016, dated 2026)
